Entries after “also recorded” stand apart in the source; their conditions may differ.
Assays:
hCA XII = hCA XII (Homo sapiens, UniProt O43570); settings: read-out: KI hCA XII; stopped-flow CO2 hydrase assay; mean from three different assays, errors ±5–10%
hCA IV = hCA IV (Homo sapiens, UniProt P22748); settings: read-out: KI hCA IV; stopped-flow CO2 hydrase assay; mean from three different assays, errors ±5–10%
hCA II = hCA II (Homo sapiens, UniProt P00918); settings: for Ki: read-out: KI hCA II, stopped-flow CO2 hydrase assay, mean from three different assays, errors ±5–10%
[1] = system: oxaliplatin-induced neuropathic pain (cold allodynia); assay: Cold plate test in mouse model of oxaliplatin-induced neuropathic pain; assay type: in vivo; settings: p.o., acute; for pain-relieving effect (licking latency, Cold plate test), in words: 10–100 mg/kg; for time of peak pain-relieving effect post-administration: up to 100 mg/kg
TRPV1 receptor = molecular target: T1, TRPV1 receptor (Homo sapiens, UniProt Q8NER1); assay: TRPV1 assay, Fluo-4NW fluorescence in SH-SY5Y-TRPV1 cells; assay type: cell-based; settings: read-out: EC50 on TRPV1 receptor activity (agonism)
T1 construct: expressed in transfected cells
T1 sequence (Q8NER1 whole entry): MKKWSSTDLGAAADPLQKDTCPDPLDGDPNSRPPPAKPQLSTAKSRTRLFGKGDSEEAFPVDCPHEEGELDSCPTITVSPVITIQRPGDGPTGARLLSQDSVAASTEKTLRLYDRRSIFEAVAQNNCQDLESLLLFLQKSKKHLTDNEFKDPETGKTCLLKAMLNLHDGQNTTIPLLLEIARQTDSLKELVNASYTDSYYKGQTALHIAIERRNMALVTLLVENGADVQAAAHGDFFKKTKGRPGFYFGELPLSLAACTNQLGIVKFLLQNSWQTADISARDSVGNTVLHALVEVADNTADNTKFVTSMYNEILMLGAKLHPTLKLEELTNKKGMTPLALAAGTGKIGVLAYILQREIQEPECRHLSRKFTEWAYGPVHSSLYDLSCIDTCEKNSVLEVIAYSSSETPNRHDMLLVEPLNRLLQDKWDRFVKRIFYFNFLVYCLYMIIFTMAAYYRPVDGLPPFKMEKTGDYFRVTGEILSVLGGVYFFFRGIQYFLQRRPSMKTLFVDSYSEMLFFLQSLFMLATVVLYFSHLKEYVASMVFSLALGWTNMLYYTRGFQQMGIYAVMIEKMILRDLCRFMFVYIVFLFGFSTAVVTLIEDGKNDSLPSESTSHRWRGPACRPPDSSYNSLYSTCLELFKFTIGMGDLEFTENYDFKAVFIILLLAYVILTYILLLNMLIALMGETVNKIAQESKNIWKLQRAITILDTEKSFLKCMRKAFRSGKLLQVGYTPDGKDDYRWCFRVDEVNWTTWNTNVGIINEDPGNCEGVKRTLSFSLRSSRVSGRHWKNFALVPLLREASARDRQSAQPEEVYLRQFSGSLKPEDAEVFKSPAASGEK
Method: SH-SY5Y-TRPV1 cells (kindly provided by Johanna Lilja and Anna Forsby (University of Stockholm, Stockholm, Sweden))[40] were cultured in 96 wells. Upon 90% confluence had been reached, the cells were loaded with 5 μM Fluo-4NW for 1 h at 37 °C. […] Briefly, after measuring the basal fluorescence of the plate (four cycles), testing compounds were added to the plate, and the fluorescence was measured for additional 10 cycles; thereafter, 10 μM capsaicin was added with a microinjector and the fluorescence was monitored for an additional 10 cycles.

hCA I = hCA I (Homo sapiens, UniProt P00915); settings: read-out: KI hCA I; stopped-flow CO2 hydrase assay; mean from three different assays, errors ±5–10%
hCA I, sequence (P00915 whole entry): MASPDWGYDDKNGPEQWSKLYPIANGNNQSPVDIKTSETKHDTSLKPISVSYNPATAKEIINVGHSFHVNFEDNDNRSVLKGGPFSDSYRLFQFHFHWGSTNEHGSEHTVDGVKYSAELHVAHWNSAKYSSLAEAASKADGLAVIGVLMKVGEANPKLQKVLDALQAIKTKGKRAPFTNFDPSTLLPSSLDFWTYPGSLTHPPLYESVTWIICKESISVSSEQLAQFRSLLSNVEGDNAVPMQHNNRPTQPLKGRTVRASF

hCA VII = hCA VII (Homo sapiens, UniProt P43166); settings: read-out: KI hCA VII; stopped-flow CO2 hydrase assay; mean from three different assays, errors ±5–10%
hCA VII, sequence (P43166 whole entry): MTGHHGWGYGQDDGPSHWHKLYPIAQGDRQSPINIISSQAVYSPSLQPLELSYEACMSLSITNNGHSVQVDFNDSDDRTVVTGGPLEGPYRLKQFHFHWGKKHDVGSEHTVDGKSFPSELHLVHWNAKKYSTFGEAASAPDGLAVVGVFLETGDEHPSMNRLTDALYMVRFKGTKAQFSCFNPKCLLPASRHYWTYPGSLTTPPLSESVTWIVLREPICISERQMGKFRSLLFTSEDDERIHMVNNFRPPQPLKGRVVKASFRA

hCA IX = molecular target: T2, hCA IX (Homo sapiens, UniProt Q16790); assay type: biochemical
T2 construct: made in house

hCA XII, sequence (O43570 25-354): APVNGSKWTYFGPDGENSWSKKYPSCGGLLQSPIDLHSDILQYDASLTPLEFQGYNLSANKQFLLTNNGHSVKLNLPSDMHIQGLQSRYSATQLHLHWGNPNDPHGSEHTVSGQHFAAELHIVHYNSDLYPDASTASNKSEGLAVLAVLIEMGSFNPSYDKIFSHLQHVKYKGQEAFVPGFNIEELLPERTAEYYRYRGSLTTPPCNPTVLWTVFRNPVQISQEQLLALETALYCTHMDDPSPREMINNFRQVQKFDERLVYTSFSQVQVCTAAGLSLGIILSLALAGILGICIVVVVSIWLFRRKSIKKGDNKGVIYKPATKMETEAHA
hCA IV, sequence (P22748 19-312): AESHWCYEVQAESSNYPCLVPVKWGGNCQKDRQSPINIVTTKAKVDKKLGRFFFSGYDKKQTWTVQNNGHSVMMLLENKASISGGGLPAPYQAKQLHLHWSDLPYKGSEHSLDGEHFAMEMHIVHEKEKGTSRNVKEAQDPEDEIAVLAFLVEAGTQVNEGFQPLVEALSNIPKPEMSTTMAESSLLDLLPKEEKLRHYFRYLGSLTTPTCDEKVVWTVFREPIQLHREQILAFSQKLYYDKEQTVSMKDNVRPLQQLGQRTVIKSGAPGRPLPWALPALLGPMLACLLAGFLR

NS(=O)(=O)c1ccc(NC(=O)N[C@@H]2CCN(c3cccc([N+](=O)[O-])n3)C2)cc1 [43a, (R)-4-(3-(1-(6-Nitropyridin-2-yl)pyrrolidin-3-yl)ureido)benzenesulfonamide]
Ki (hCA XII): 83.7 nM | Ki (hCA IV): 2290 nM | Ki (hCA II): 7.5 nM | pain-relieving effect (licking latency, Cold plate test), in words ([1]; day 15, listed as (R)-43a): dose-dependent effectiveness; also recorded: moderate and shorter relieving outcomes | time at which the effect was suppressed ([1]; Cold plate test): 75 min | time of peak pain-relieving effect post-administration ([1]; Cold plate test): 45 min | EC50 (TRPV1 receptor): > 100000 nM | Ki (hCA I): 68.3 nM | Ki (hCA VII): 164 nM | Ki (hCA IX): 93.6 nM

NS(=O)(=O)c1ccc(NC(=S)N[C@@H]2CCN(c3cccc([N+](=O)[O-])n3)C2)cc1 [37a, (R)-4-(3-(1-(6-Nitropyridin-2-yl)pyrrolidin-3-yl)thioureido)benzenesulfonamide]
Ki (hCA XII): 409 nM | Ki (hCA IV): 471 nM | fold higher efficacy in inhibiting CA II over (R)-12a (hCA II; ratio of Ki): 10.4 fold | Ki (hCA II): 6.7 nM | pain-relieving effect (licking latency, Cold plate test), in words ([1]; day 15): more potent and effective than (R)-12a | time of peak pain-relieving effect post-administration ([1]; Cold plate test): 30 min | EC50 (TRPV1 receptor): 8000 nM | Ki (hCA I): 74.8 nM | Ki (hCA VII): 175 nM | Ki (hCA IX): 16.8 nM
